Compound | melting point [°C]
CC1(C(=O)O)Cc2ccccc2NC1=O (single isomer, unassigned; (+)) | 139 to 141
CN(C)c1ccc(C(N)=NNc2ccc([N+](=O)[O-])cc2)cc1 | 174
CN(CCc1ccncc1)S(=O)(=O)C1CCCCC1 | 94 to 96
CC(=O)c1ncn2c1CN=C(c1ccccc1Cl)c1cc(Cl)ccc1-2 | 214 to 216
CCC(CCN=C(O)C(Br)=C(Br)C(=O)O)c1ccccc1 (stereo not drawn) | 71 to 73
CC1=C(OCC(C)C)CC(C)(C)C1=O | 63
COc1ccc2[nH]c3cc(-c4cc([N+](=O)[O-])ccc4OC)c4c(c3c2c1)C(=O)NC4=O | 302 to 304
CC1(C)Cc2c(c(N3CCCC3)nc3sc4c(NCc5ccncc5)ncnc4c23)CO1 | 228 to 229
CCCCCC(C)C(C)c1cc(OC)c2c(c1)OC(C)(C)C1=C2CN(C(=N)OC)CC1 (stereo not drawn) | 134 to 136
Nc1ccc2c(c1)NC(=O)c1cscc1N2 | 212 to 215
CC(C)(C)OC(=O)NCCOc1noc2ccc(F)c(C#N)c12 | 116 to 117
CC(Oc1ccc(Oc2ccc(Cl)cc2Cl)cc1)C(=O)N1CCCO1 (stereo not drawn) | 115 to 118
CC(C)(C)OC(=O)NCc1cccc(C(=O)O)n1 | 238 to 240
COc1ccc2c(c1)CCC1C2CCC2(C)C(OC(C)=O)=CCC12 (stereo not drawn) | 97 to 100
CC(=O)OC1CSC(Oc2cncc(-c3ccc(C#N)nc3)c2)C(OC(C)=O)C1OC(C)=O (stereo not drawn) | 142 to 151
CC1CN(c2c(F)cc3c(=O)c(C(=O)O)cn(C4CC4)c3c2Cl)CC1CN (stereo not drawn) | 235 to 238
CCCCCCCC/C=C\CCCCCCCC1=C(O)C(=O)C=C(OC)C1=O | 69.5 to 70.5
CC(C)(C)c1ccc(C(=O)NC(=N)N)cc1 | 255 to 258
O=C1N(CC2CCCO2)c2ccc(F)cc2C12COc1cc3c(cc12)CCO3 (stereo not drawn) | 167 to 169
COC(=O)c1ccc(CCC2CNc3nc(NC(=O)C(C)(C)C)nc(O)c3C2)[nH]1 (stereo not drawn) | 246 to 248
O=c1cc(-c2ccc(OCCOc3ccc(-c4cc(=O)c5c(O)cc(O)cc5o4)cc3)cc2)oc2cc(O)cc(O)c12 | 352 to 355
COc1ccc2nc(Cl)cc(CCNC(C)=O)c2c1 | 162 to 164
CC#CCOc1cc(Oc2cccc(C#N)c2)ncn1 | 121
CC(C)(C)OC(=O)NCc1ccc(C2(C)OCCO2)cc1 | 105 to 107
C=CCN1C(=O)COc2cc(Br)c(F)cc21 | 92
Cc1ccc(Cc2cnc(NCCSCc3cc(CN(C)C)ccn3)[nH]c2=O)cn1 | 128 to 130
OC1C2CCN(CC2)C1CN1CCCCC1 (stereo not drawn) | 130 to 131

Compound | melting point [°C]
CC(=O)Nc1nc(N(C(C)=O)C(C)=O)c(CC=O)c(=O)[nH]1 | 169 to 170
C#CCSc1cc(-c2nn(C)c(SC)c2Cl)c(F)cc1Cl | 93 to 96
COCC1(O)CCN(c2ccc(N3C[C@H](CNC(C)=O)OC3=O)cc2)CC1 | 152 to 154
COc1cc(C(=O)NC2CC(C)(C)N(C)C(C)(C)C2)ccc1-c1nc2cc(Cl)c(Cl)cc2[nH]1 | 285 to 286
CCCC(CC)(CC)C(=O)O[C@H]1C[C@H](O)C=C2C=C[C@H](C)[C@H](CC[C@@H]3C[C@@H](O)CC(=O)O3)[C@H]21 | 130 to 131
CN1NCc2c(Cl)ncnc21 | 97 to 99
CCOC(=O)c1cnc(Cl)c2c(C)n[nH]c12 | 180
COC(C)(C)C(=O)C(Oc1ccc(I)cc1)n1cncn1 (stereo not drawn) | 81.5 to 82.5
NC(=O)C1(N2CCCCC2)CCN(Cc2ccccc2)CC1 | 150 to 160
Cn1cc(C(=O)O)c(=O)c2cc(F)c(Cl)cc21 | 342
NP(N)(=O)c1ccccc1 | 187 to 191
C=CCNc1ccc(C(=O)OC)cc1 | 71 to 73
NC(=O)Cc1ccc(Nc2nc(OCC3CCCCC3)c3nc[nH]c3n2)cc1 | 234
N#CCC(=O)Nc1cc(Cl)c(Cl)cc1[N+](=O)[O-] | 156 to 158
O=[N+]([O-])c1cc(OCC2=CCCSC2)c(Cl)cc1F | 91 to 94
N#Cc1cnc2ccsc2c1Oc1ccc(Cl)cc1Cl | 158 to 160
CCS(=O)(=O)Nc1cc(Cc2c[nH]cn2)ccc1F | 122 to 123
Cc1ccccc1OCC(O)CNCCOc1ccc(C(N)=O)cn1 (stereo not drawn) | 139 to 141
OCC1OC(n2c(Br)nc3cc(Cl)c(Cl)cc32)CC1O (stereo not drawn) | 187 to 188
CCOC(=O)N1C=CC(c2c(-c3cccs3)nc3ccc(N4CCN(C(=O)OC(C)(C)C)CC4)nn23)C=C1 | 155
CCC(=O)NC(C)OC (stereo not drawn) | 29 to 32
CCCn1c(=O)cc(N)n(-c2ccccc2C)c1=O | 226 to 228
CN1C(=O)CCC2(C)C1=CCC1C2CCC2(C)C(O)CCC12 (stereo not drawn) | 181 to 183
N#CCC1Cn2cccc2C1=O (stereo not drawn) | 68
CCC1(CC)CC(=O)c2cc(C#N)ccc2O1 | 71 to 72
CN(O)C(=O)C1CCC(C2CCCCC2)CC1 (stereo not drawn) | 89 to 90
CC12CC(C(F)F)C3C4CCC(=O)C=C4CCC3C1CCC2=O (stereo not drawn) | 149 to 151

Now from value to compound:

melting point [°C] | Compound
174 to 175 | COc1ccc(S(=O)(=O)Nc2c(Cl)ncnc2Nc2ccccc2)cc1
85 to 86 | c1ccc(-c2cc3ccc4ccccc4n3n2)cc1
298 to 300 | CC(C)(C)OC(=O)[C@H](Cc1ccc(O)cc1)NC(=O)C12CC3CC(C(=O)N1Cc1ccccc1)C2C3 (stereo partly drawn)
264 to 265 | Cc1nc(NC(=O)C2=C(O)c3ccc4ccccc4c3S(=O)(=O)N2C)sc1C
130 to 132 | CC(=O)N1CCc2nc(Nc3nc(-c4ccccc4)cs3)nc(-c3ccccc3)c2C1
171 to 172 | CCOCc1nc2c(N)nc3ccccc3c2n1CCCc1cc(-c2ccccc2)no1
183 to 184 | COc1ccc(-c2cccn2-c2ccc(S(C)(=O)=O)cc2)cc1
156 to 159 | CS(=O)(=O)c1ccc(-c2nc(C(F)(F)F)nc(Cl)c2-c2ccccc2)cc1
90 to 92 | Cc1cc(C2(C(F)(F)F)CC(c3ccc(Cl)cc3)=NN2C)ccc1NC(=O)c1cccc(I)c1C(=O)NC(C)C (stereo not drawn)
275 | Cc1cc(-c2cnn3c(C(F)(F)F)cc(-c4ccc(Cl)c(Cl)c4)nc23)ccn1
100 to 102 | CONC(=O)c1ccccc1OCc1ccc(Cl)cc1Cl
115 to 116 | CC(=O)Nc1ccc(-c2nnn(-c3ccc(C(F)(F)F)cc3F)c2N)cc1
96 to 99 | COc1ccc(/C=C(\C#N)c2ccc(C(F)(F)F)cc2)cc1OC1CCCC1
213 to 215 | O=C(Cc1c(-c2ccccc2)c2cc(CSc3ccccn3)c(Cl)cc2oc1=O)Nc1ccc(Cl)cc1C(F)(F)F
104 to 105 | COC(=O)C(Oc1ccc(-c2ccc(Cl)cc2)cc1)C(F)(F)F (stereo not drawn)
185 | O=C(Nc1cc2ncc(CN3CCCC3)cc2cc1Cl)c1ccc(-c2ccc(Cl)s2)cc1
105 | COc1ccc2ccc(N3C(=O)c4ccccc4C3OC(=O)CCCC(C)C)nc2n1 (stereo not drawn)
136 to 138 | CNC(=O)N1N=C(c2ccc(N)cc2)c2cc3c(cc2CC1CO)OCO3 (stereo not drawn)
106 to 110 | COc1cc2c(cc1OC)N(C(=O)OCc1ccccc1)C(C)C(=CO)C2=O (stereo not drawn)
59 to 61 | O=C1c2ccccc2C(=O)N1CCSCc1ccco1
164 | CCc1nc(SC)c(C(=O)O)n1Cc1ccc(-c2ccccc2S(=O)(=O)NC(=O)NCc2ccccc2)cc1
209 to 210 | O=C(O)c1cc(-n2c(-c3ccccc3)cc3c2CCCC3)cc(Br)c1O

melting point [°C] | Compound
82 to 84 | CCOC(=O)c1cc(-c2ccc(Cl)cc2)n(O)c1C(=O)OCC
138 to 139 | COc1cc(OCC(=O)O)c(C)cc1SCc1ccc(-c2cccc(C(F)(F)F)c2)cc1
72 to 74 | O=C(O)C(=O)c1ccc(OCOc2ccccc2)cc1
248 to 249 | O=C(CCCl)Nc1cccc2c1C(=O)c1c(NC(=O)CCCl)cccc1C2=O
300 to 305 | CN1CCC(=C2c3ccccc3C=Cc3ccc(C(=O)O)cc32)CC1
246 to 248 | Cc1sc(-c2ccccc2)nc1CN(C)[C@H]1CC[C@H](c2ccc3[nH]c(=O)oc3c2)CC1
247 to 252 | O=c1c2c(Cc3ccccc3OC(F)(F)F)n[nH]c2c2cccnc2n1-c1cccc(C(F)(F)F)c1
91 to 93 | CN1CCN(c2cc(Cl)cc3c2c(=O)n(Cc2ccccc2Br)c(=O)n3Cc2ccccc2)CC1
214 | Cc1cccc(NC(=O)NCC(=O)N(c2ccccc2)C(C)C(=O)N(C)c2ccccc2)c1 (racemic)
93 to 95 | CCOC(=O)c1nn(-c2ccccc2Cl)c(=O)c(C#N)c1C
210 to 212 | O=C(Nc1ccc(-c2ncno2)cc1)Oc1ccc([N+](=O)[O-])cc1
141 to 142 | COC(=O)c1cccc(-c2nc(COc3ccc(CO)cc3OC)c(C)o2)c1
172 to 175 | CS(=O)(=O)c1ccc(-c2nc3cc(C4CCN(C(=O)OCc5ccccc5)CC4)ccc3o2)c(F)c1
135 | O=C(c1ccc(Cl)cc1)n1cc(CCN=c2sc3ccccc3s2)c2ccccc21
211 to 213 | CCOCc1nc2c(N)nc3cc(-c4ccncc4)ccc3c2n1CC(C)C
180 to 183 | O=S(Cc1c(F)cccc1Cl)c1nc2cnccc2[nH]1 (stereo not drawn)
81 to 82.5 | N#CC(c1ccc([N+](=O)[O-])cc1)c1ccc(Cl)cc1Cl (stereo not drawn)
130 to 131 | COc1ccc(-c2ccccc2NC(=N)N(C)C)cc1
173 to 175 | CCOC(=O)Cc1cc2c(s1)CCN(C(=O)[C@H](Cc1ccccc1)NC(=O)c1ccc(C(=N)N)cc1)C2
160 | CC(C)(Oc1ccc(CC(=O)Nc2cc(Cl)c(Cl)c(Cl)c2)cc1)C(=O)O
148 to 149 | CC(C)=NN=C(c1ccc(Cl)cc1)c1ccc(OS(C)(=O)=O)cc1
106 to 110 | CC(C)(C)OC(=O)C[C@@H](NS(=O)(=O)c1ccc2c(Cl)cnc(Cl)c2c1)C(=O)OC(C)(C)C

— a melting point compilation (Tetko et al.; mined from patent text by program, amines drawn as free bases though some values may be those of a salt)
